Activity calls are given as the source filed them. The calls are words filed in the database; no cut-off is given here.
Assays:
[1] = system: Putative P2Y purinoceptor 10 (Homo sapiens), O00398 [V159F]; assay: Agonist activity at N-terminal FLAG-tagged human LPS2/P2Y10 V159F mutant transfected in HEK293-A cells co-transfected with AP-TGFalpha assessed as AP-TGFalpha release by TGFalpha shedding assay relative to LysoPS; assay type: cell-based; settings: filed as agonist
[2] = molecular target: Putative P2Y purinoceptor 10 (Homo sapiens, UniProt O00398, A163F); assay: Agonist activity at N-terminal FLAG-tagged human LPS2/P2Y10 A163F mutant transfected in HEK293-A cells co-transfected with AP-TGFalpha assessed as AP-TGFalpha release by TGFalpha shedding assay; assay type: cell-based
Sequence of Putative P2Y purinoceptor 10 (Homo sapiens, UniProt O00398, A163F) (O00398 whole entry A163F): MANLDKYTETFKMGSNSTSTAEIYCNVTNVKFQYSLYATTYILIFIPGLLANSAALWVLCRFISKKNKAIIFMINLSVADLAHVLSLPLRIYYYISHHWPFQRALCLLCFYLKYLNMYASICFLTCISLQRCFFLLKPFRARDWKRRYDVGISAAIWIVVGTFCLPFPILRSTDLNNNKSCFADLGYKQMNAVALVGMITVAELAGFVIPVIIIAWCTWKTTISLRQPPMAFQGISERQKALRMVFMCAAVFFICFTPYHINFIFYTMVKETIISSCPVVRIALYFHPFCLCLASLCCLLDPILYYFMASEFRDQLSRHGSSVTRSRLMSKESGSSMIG

[3] = molecular target: T1, Putative P2Y purinoceptor 10 (Homo sapiens, UniProt O00398); assay: Agonist activity at human LPS2/P2Y10 transfected in HEK293-A cells co-transfected with AP-TGFalpha assessed as AP-TGFalpha release by TGFalpha shedding assay relative to LysopPS; assay type: functional, cell-based; settings: filed as agonist
T1 sequence (O00398 whole entry): as the sequence (O00398 whole entry A163F) above, with F163A counted along it

[4] = molecular target: Putative P2Y purinoceptor 10 (Mus musculus, UniProt Q8BFU7); assay: Agonist activity at mouse LPS2/P2Y10 transfected in HEK293-A cells co-transfected with AP-TGFalpha assessed as AP-TGFalpha release by TGFalpha shedding assay; assay type: functional, cell-based; settings: read-out: EC50
Sequence of Putative P2Y purinoceptor 10 (Mus musculus, UniProt Q8BFU7) (Q8BFU7 whole entry): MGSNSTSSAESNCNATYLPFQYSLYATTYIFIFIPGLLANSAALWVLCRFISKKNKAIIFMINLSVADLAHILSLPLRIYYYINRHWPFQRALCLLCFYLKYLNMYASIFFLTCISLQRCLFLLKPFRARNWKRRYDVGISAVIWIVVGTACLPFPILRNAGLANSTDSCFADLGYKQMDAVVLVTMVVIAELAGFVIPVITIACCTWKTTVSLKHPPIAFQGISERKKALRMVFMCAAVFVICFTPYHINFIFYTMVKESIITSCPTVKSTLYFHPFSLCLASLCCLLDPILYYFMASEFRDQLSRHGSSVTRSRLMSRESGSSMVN

[5] = system: Putative P2Y purinoceptor 10 (Homo sapiens), O00398 [A163F]; assay: Agonist activity at N-terminal FLAG-tagged human LPS2/P2Y10 A163F mutant transfected in HEK293-A cells co-transfected with AP-TGFalpha assessed as AP-TGFalpha release by TGFalpha shedding assay relative to LysoPS; assay type: cell-based; settings: filed as agonist
Sequence of Putative P2Y purinoceptor 10 (Homo sapiens), O00398 [A163F] (O00398 whole entry A163F): as the sequence (O00398 whole entry A163F) above

[6] = molecular target: T1, Putative P2Y purinoceptor 10; assay: Agonist activity at human LPS2/P2Y10 transfected in HEK293-A cells co-transfected with AP-TGFalpha assessed as AP-TGFalpha release by TGFalpha shedding assay; assay type: functional, cell-based; settings: read-out: EC50
[7] = molecular target: Putative P2Y purinoceptor 10 (Mus musculus) (UniProt Q8BFU7); assay: Agonist activity at mouse LPS2/P2Y10 transfected in HEK293-A cells co-transfected with AP-TGFalpha assessed as AP-TGFalpha release by TGFalpha shedding assay relative to LysoPS; assay type: functional, cell-based; settings: filed as agonist
Sequence of Putative P2Y purinoceptor 10 (Mus musculus) (Q8BFU7 whole entry): as the sequence (Q8BFU7 whole entry) above

[8] = molecular target: T1, Putative P2Y purinoceptor 10; assay: Agonist activity at wildtype N-terminal FLAG-tagged human LPS2/P2Y10 transfected in HEK293-A cells co-transfected with AP-TGFalpha assessed as AP-TGFalpha release by TGFalpha shedding assay relative to LysoPS; assay type: functional, cell-based; settings: filed as agonist
[9] = molecular target: T1, Putative P2Y purinoceptor 10; assay: Agonist activity at wildtype N-terminal FLAG-tagged human LPS2/P2Y10 transfected in HEK293-A cells co-transfected with AP-TGFalpha assessed as AP-TGFalpha release by TGFalpha shedding assay; assay type: functional, cell-based
[10] = molecular target: Putative P2Y purinoceptor 10 (Homo sapiens, UniProt O00398, V159F); assay: Agonist activity at N-terminal FLAG-tagged human LPS2/P2Y10 V159F mutant transfected in HEK293-A cells co-transfected with AP-TGFalpha assessed as AP-TGFalpha release by TGFalpha shedding assay; assay type: cell-based
Sequence of Putative P2Y purinoceptor 10 (Homo sapiens, UniProt O00398, V159F) (O00398 whole entry V159F): as the sequence (O00398 whole entry A163F) above, with V159F, F163A counted along it

McA-RH7777 [11] = assay: Induction of actin stress fiber formation in rat McA-RH7777 cells expressing mouse LPS2 at 1 nM incubated for 30 mins by Alexa594-labelled phalloidin staining based fluorescence microscopic analysis; assay type: functional, cell-based
McA-RH7777 [12] = assay: Induction of actin stress fiber formation in rat McA-RH7777 cells expressing mouse LPS2 at 0.001 to 1 uM incubated for 30 mins by Alexa594-labelled phalloidin staining based fluorescence microscopic analysis; assay type: functional, cell-based; settings: dose 0.001-1 µM
McA-RH7777 [13] = assay: Induction of actin stress fiber formation in rat McA-RH7777 cells expressing mouse LPS2 at 1 uM incubated for 30 mins by Alexa594-labelled phalloidin staining based fluorescence microscopic analysis; assay type: functional, cell-based

Sequence of Putative P2Y purinoceptor 10 (Homo sapiens), O00398 [V159F] (O00398 whole entry V159F): as the sequence (O00398 whole entry A163F) above, with V159F, F163A counted along it

Row | Emax [1] [%] | EC50 [2] [nM] | Emax [3] [%] | EC50 [4] [nM] | Emax [5] [%] | EC50 [6] [nM] | Emax [7] [%] | Emax [8] [%] | EC50 [9] [nM] | EC50 [10] [nM] | Structure (SMILES) | Activity (McA-RH7777 [11]) | Activity (McA-RH7777 [12]) | Activity (McA-RH7777 [13])
1 | 131 | 33 | 133 | 9.2 | 122 | 71 | 111 | 125 | 53 | 26 | N[C@@H](COP(=O)(O)OCCCOC(=O)CCc1ccccc1Oc1ccc(-c2ccccc2)cc1)C(=O)O | – | – | –
2 | – | – | 125 | 1 | – | 22 | 113 | – | – | – | N[C@@H](COP(=O)(O)OCCCOC(=O)CCc1ccccc1Oc1ccc(-c2cccc(-c3ccccc3)c2)cc1)C(=O)O | Active | – | –
3 | – | – | – | 170 | – | – | 100 | – | – | – | N[C@@H](COP(=O)(O)OCCCOC(=O)CCc1ccccc1Oc1ccc(-c2ccc(C(=O)O)cc2)cc1)C(=O)O | – | inactive | –
4 | 128 | 390 | – | 57 | 137 | – | 107 | 120 | 170 | 270 | N[C@@H](COP(=O)(O)OCCCOC(=O)CCc1ccccc1Oc1ccc(C23C[C@H]4C[C@@H](C2)C[C@@H](C3)C4)cc1)C(=O)O | – | – | –
5 | – | – | 112 | 1.9 | – | 6.1 | 83 | – | – | – | N[C@@H](COP(=O)(O)OCCCOC(=O)CCc1ccccc1Oc1ccc(-c2cc(-c3ccccc3)cc(-c3ccccc3)c2)cc1)C(=O)O | Active | – | –

Row | Structure (SMILES) | Emax [1] [%] | EC50 [2] [nM] | Emax [3] [%] | EC50 [4] [nM] | Emax [5] [%] | EC50 [6] [nM] | Emax [7] [%] | Emax [8] [%] | EC50 [9] [nM] | EC50 [10] [nM] | Activity (McA-RH7777 [11]) | Activity (McA-RH7777 [12]) | Activity (McA-RH7777 [13])
6 | CCCCCCCC/C=C\CCCCCCCC(=O)OC[C@@H](O)COP(=O)(O)OC[C@H](N)C(=O)O | – | – | – | 21 | – | – | – | – | – | – | – | – | Active

From ChEMBL document CHEMBL5360551, “Exploration of LPS2 agonist binding modes using the combination of a new hydrophobic scaffold and homology modeling” (Eur J Med Chem, 2023)
